The values that follow come from patent US20030096264A1, “Multi-parameter high throughput screening assays (MPHTS)” (Psychiatric Genomics, Inc., priority 2001, published 2003).

The experiment relates to stem cells isolated from rat cortex, differentiated with CNTF (astrocyte cultures). As to the kind of experiment: Expression profile of CNTF-differentiated rat cortex stem cells treated with VIP. Type of experiment: cell-based. The settings on record: 5 μM VIP, one day. On the procedure: VIP signature genes. Similar experiments were also performed in which cells were treated with vasoactive intestinal polypeptide (VIP), another drug useful for treating neuropsychiatric disorders. In more detail, stem cells were isolated and propagated from rat cortex. At passage 1, they were treated with 10 ng/ml ciliary neurotrophic factor (CNTF, available from R&D Systems, MN) for four days. 10 ng/ml of basic fibroblast growht factor (bFGF, R&D Systems, MN) was present in the medium on the first day of the differentiation regiment. […] Cells were then treated with 5 μM VIP (Sigma) for one day and harvested for expression profiling.
Signature genes were identified that changed expression when contacted with VIP compared to untreated cells. Each of these genes is listed below in Table 4, along with the measured expression ratio (ρ) and the GenBank Accession number for an exemplary cDNA sequence. The exemplary cDNA sequence for each gene is also provided here in the accompanying sequence listing. Accordingly, an appropriate sequence identifier is also specified in Table 4 for each listed gene.

Turning to vasoactive intestinal polypeptide [VIP], the “expression ratio σ: Cdk-inhibitor p57Kip2” value (vs untreated, U22399 SEQ ID NO: 163) is listed as −1.8. For the same substance, the “expression ratio σ: Rat EGF like protein” value (AF112153 SEQ ID NO: 164) came to 3.8. Moreover, the “expression ratio σ: Rat Interferon inducdible protein 16” value (AF164040 SEQ ID NO: 168) was 1.8. Moreover, the “expression ratio σ: similar to erythrocyte protein band 7.2” value (BC003789 SEQ ID NO: 166) was 2.2. Also, under “U02094 SEQ ID NO: 169”, the “expression ratio σ: rat Dahl salt resistant strain clone etb” value was 1.8. In addition, the “expression ratio σ: Rat tyrosine phosphatase like protein IA-2a” value (U40682 SEQ ID NO: 167) was determined as 2.0. Also, for the setting “X61381 SEQ ID NO: 165”, the “expression ratio σ: Rat interferon induced mRNA” value was found to be 2.3.
